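Cells were grown in 96-well plates and exposed to each compound for 48 hours at five concentrations; endpoints were interpolated linearly between bracketing concentrations, or set to the highest concentration if not reached. TGI denotes the concentration required for complete inhibition of growth.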 Bounds are passed on as bounds.

Common to all, as to test: growth of human tumour cells (NCI), 48 h
The subject of assay [1] is SF-539 CNS.
Assay [2] concerns RXF 393 renal.
Assay [3] concerns U251 CNS.
Assay [4] deals with HCC-2998 colon.
Assay [5] concerns A549 NSCLC.
The test system of assay [6] is IGROV1 ovarian.
For assay [7], the system named is SF-268 CNS.
Assay [8] relates to CAKI-1 renal.
Assay [9] concerns NCI-H226 lung.
The subject of assay [10] is MDA-MB-231 breast.
Assay [11] has as its system MDA-N.
Assay [12] relates to MCF7 breast.

For `CO[C@@H]1C=C[C@@]23c4cc5c(cc4C(=O)O[C@H]2CN(C)[C@H]3C1)OCO5`, the TGI in assay [1], in assay [2], in assay [3], in [4], in [5] and in [6] was greater than 100 µM each time. This compound returned a TGI in assay [7] greater than 100 µM.
As to `CC(=O)OC1CCCn2c1nc1c2C(=O)C(C)=C(N2CC2)C1=O` (stereo not drawn), the TGI in [1] was found to be 1.43 µM; in assay [8] it was 0.687 µM; in [2] it was 0.768 µM; in assay [3], 0.533 µM; in [4] it was 0.722 µM; in [5] it was 2.77 µM. The TGI was 0.944 µM in [9], 3.35 µM in assay [6] and 1.05 µM in assay [7].
Consider `CCN(CC)CCNC(=O)c1cc2cc(NC(=O)c3cc4cc(NC(=O)c5cc6cc(N)ccc6[nH]5)ccc4[nH]3)ccc2[nH]1`, for which the TGI in assay [8], in assay [2], in [10], in assay [3], in [11] and in assay [4] was greater than 100 µM throughout. The TGI in assay [5], in [9], in [6] and in [7] was greater than 100 µM in each case.
Consider `O=C(N=Nc1cccc(Cl)c1)NNc1cccc(Cl)c1`, for which the TGI was 91.1 µM in assay [8]; 74.6 µM in [10]; 40 µM in assay [3]; 31.2 µM in assay [11]; 28.9 µM in assay [4]; 94.6 µM in assay [5]. Further, the TGI in assay [9] is greater than 100 µM; in [6], 43.3 µM; in assay [7], 73.6 µM.
With `CC1(C)C(O)C[C@@H](O)[C@@]2(C)C1CC[C@]1(C)C2C[C@@H](O)[C@@H]2C([C@@]3(C)CC[C@@H](C(C)(C)O)O3)CCC21C` (stereo partly drawn), the TGI in assay [1] came out at 27.5 µM; in assay [8], 42.1 µM; in [2] it was 27.1 µM; in assay [3] it was 25.5 µM; in assay [4] it was 31.4 µM; in [5], 37 µM. In addition, the TGI was determined as 34.7 µM in assay [9], 28.1 µM in assay [6] and 32 µM in assay [7].
In the case of `CC(=O)Nc1ccc2[nH]c(-c3cccc(Cl)c3)cc(=O)c2c1`, the TGI in [1] was 30 µM; in assay [10] it was greater than 100 µM; in [3] it was 23.8 µM; in assay [4], 63.5 µM; in assay [12] it was greater than 100 µM; in assay [5], greater than 100 µM. Also, in assay [6], the TGI was greater than 100 µM.
For `Cc1cc(S(=O)(=O)Nc2cc(N)[nH]n2)c(SCc2nc(N)nc(N(C)C)n2)cc1Cl`, the TGI in assay [1], in [8], in assay [2], in assay [3], in assay [11] and in assay [4] was greater than 10 µM each time. In addition, the TGI in assay [12], in assay [5], in assay [9], in assay [6] and in assay [7] was greater than 10 µM throughout.
As for `COC(=O)[C@@H]1CN(C(C)=O)C(=O)N1C(=O)OCc1ccccc1`, the TGI in assay [1], in assay [8], in assay [2], in [10], in assay [3] and in assay [11] was greater than 100 µM in each case. Moreover, the TGI in [4], in assay [5], in assay [9], in assay [6] and in assay [7] was greater than 100 µM throughout.
As to `CN(N)c1cc(=O)[nH]c(=O)[nH]1`, the TGI in assay [1], in assay [8], in assay [10], in assay [11], in [4] and in assay [5] was greater than 100 µM each time. In addition, the TGI in assay [9], in [6] and in [7] was greater than 100 µM throughout.
As to `C=C[C@@H]1C[C@]2(C(=O)OC)Cc3nc4ccccc4nc3CC(C(=O)OC)=C2O1`, the TGI in assay [1], in assay [8], in assay [2], in assay [10], in assay [3] and in assay [11] was greater than 100 µM in each case. Also, the TGI in assay [12], in assay [5], in [6] and in assay [7] was greater than 100 µM throughout.
With `CC1=CC[C@@]2(CO)[C@@H]([C@@H]1C)[C@H]1CC[C@@H]3[C@@]4(C)CC[C@H](O)C(C)(C)[C@@H]4CC[C@@]3(C)[C@]1(C)C[C@@H]2O`, the TGI was greater than 100 µM in [8]; 25.7 µM in assay [2]; 46.7 µM in [3]; greater than 100 µM in [11]; greater than 100 µM in [12]; greater than 100 µM in assay [5]. Further, the TGI was 81.4 µM in assay [9], 82.3 µM in assay [6] and greater than 100 µM in [7].
On to `COc1cc(C2C(C#N)=C(N)OC3=C2CCS(=O)(=O)c2ccc(C)cc23)cc(OC)c1OC` (stereo not drawn), for which the TGI in assay [8], in assay [10], in assay [3], in assay [11], in assay [4] and in assay [5] was greater than 100 µM throughout. The TGI in assay [9], in assay [6] and in assay [7] was greater than 100 µM in each case.
Take `CC(C)=NNC=N/C(C#N)=C(\N)C#N`: the TGI in assay [1] is greater than 100 µM; in assay [8], greater than 100 µM; in assay [2], greater than 100 µM; in [3], greater than 100 µM; in assay [4] it was 1.21 µM; in [12], greater than 100 µM. Further, the TGI in assay [5], in [9], in [6] and in [7] was greater than 100 µM each time.
Take `CC(NC(=O)C(N)CC(=O)O)NC(=O)C1CCC1` (stereo not drawn): the TGI in assay [1], in assay [8], in [2], in assay [10], in [3] and in [11] was greater than 100 µM each time. Moreover, the TGI in [12], in assay [5], in [9] and in [7] was greater than 100 µM throughout.
Regarding `Nc1cc(N2CCCC2)nc(=O)n1-c1ccccc1`, the TGI in assay [1] is greater than 100 µM; in assay [8], greater than 100 µM; in assay [10] it was greater than 100 µM; in assay [3], greater than 100 µM; in assay [4], 75.6 µM; in [12], greater than 100 µM. Also, the TGI in assay [5], in assay [9] and in assay [6] was greater than 100 µM in each case.
For `CO/N=C(\C(=O)N(C)n1cnnc1)c1csc(NC(c2ccccc2)(c2ccccc2)c2ccccc2)n1`, the TGI in [1], in assay [8], in [2], in [3], in assay [11] and in assay [4] was greater than 10 µM in each case. The TGI in assay [12], in assay [5], in assay [9], in assay [6] and in [7] was greater than 10 µM each time.
`O=C(O)c1ccc(NC(NC(=O)C(C(F)(F)F)C(F)(F)F)(C(F)(F)F)C(F)(F)F)cc1`: the TGI in assay [1], in assay [8], in assay [2], in assay [3], in assay [11] and in assay [4] was greater than 100 µM throughout. In addition, the TGI in [5], in assay [6] and in assay [7] was greater than 100 µM each time.
On to `N#C/C(C(=O)Nc1ccc(Cl)cc1)=C(/N)N1CCCCC1`, for which the TGI in assay [1], in assay [8], in [3], in assay [11], in assay [4] and in [12] was greater than 100 µM throughout. Moreover, the TGI in assay [5], in assay [9] and in assay [6] was greater than 100 µM each time.
Turning to `CC(=O)CSc1c(-c2ccccc2)c(=O)n(-c2ccccc2)c(=S)n1-c1ccccc1`, the TGI in [8], in assay [3], in assay [11], in [12], in [5] and in assay [9] was greater than 100 µM each time. The TGI in [6] and in [7] was greater than 100 µM in each case.
On to `CCc1c(Cc2[nH]c(Cc3[nH]c(C=O)c(C)c3CC)c(CC)c2CC)[nH]c(C=O)c1C`, for which the TGI in [1], in [8], in [2], in [3], in [4] and in assay [5] was greater than 100 µM throughout. Further, the TGI in assay [9] and in assay [7] was greater than 100 µM each time.
On to `CC(C)(C)OC(=O)NCCc1cccc2c1oc1c(CCC(=O)O)cccc12`, for which the TGI in [1], in assay [8], in [2], in assay [3], in assay [4] and in assay [5] was greater than 100 µM throughout. Besides, the TGI in assay [9], in assay [6] and in assay [7] was greater than 100 µM throughout.

The values above are taken from PubChem BioAssay (NCI).
